Data taken from patent US10501438B2, “Aryl-substituted dihydroquinolinones, their preparation and their use as pharmaceuticals” (NEOMED Institute, priority 2015, dated 2019).
pIC50: −log10 of the molar value.

Columns and labels:
BRD4(BD1) = BRD4(BD1) (Homo sapiens (Human), UniProt O60885); assay: In vitro bromodomain inhibition assay (AlphaLISA); type: binding; conditions: His-tagged BRD4 BD1 200 nM, biotinylated H4-tetraacetyl peptide 200 nM
Description: a) In Vitro Bromodomain Inhibition Assay
To measure activity of bromodomain inhibitors, a His-epitope tagged BRD4 BD149-170 is purchased from BPS Bioscience. BRD4 binding and inhibition is assessed by monitoring the engagement of biotinylated H4-tetraacetyl peptide (H4K5/8/12/16; AnaSpec #64989-025) with the target using the AlphaLISA technology (Perkin-Elmer). Specifically, in a 384 well OptiPlate, BRD4(BD1) (200 nM final) is pre-incubated with either DMSO (final 1.0% DMSO) or a compound dilution series in DMSO. All reagents are diluted in assay buffer containing 50 mM HEPES (pH 7.4), 100 mM NaCl, 0.1% (w/v) BSA, and 0.05% (w/v) CHAPS. After a 30 min incubation at rt, H4 peptide is added (200 nM final) and the reaction is incubated an additional 30 min at rt. Alpha streptavidin donor beads and AlphaLISA nickel chelate acceptor beads are then added to a final concentration of 10 μg/mL each. After one hour, equilibration plates are read on an Envision instrument and IC50s calculated using a four parameter non-linear curve fit (results are shown in Table 2).

[1] = tested on: human C-Myc transcription in MV-4-11 cells; assay: Transcription of human C-Myc in human leukemic MV-4-11 cells (QuantiGene 2.0); type: cell-based; conditions: Homo sapiens, MV4-11, 4 h, inhibition of C-Myc mRNA, 4 hours treatment
Description: b) Transcription of Human C-Myc in Human Leukemic MV-4-11 Cells:
The effect of compounds on transcription of human C-Myc gene is monitored in human B-myelomonocytic leukemia cell line MV-4-11 (from American Type Culture Collection (ATCC), Manassas, Va., USA) using QuantiGene 2.0 assay kit (Affymetrix, Santa Clara, Calif., USA).
Typically, 8,000 MV-4-11 cells are plated in sterile 96-well plates (Costar #3598 from Fisher Scientific Canada, Ottawa, Ontario, Canada) in Iscove's medium supplemented with 10% fetal bovine serum, glutamine (2 mM), and penicillin (100 I.U.) and streptomycin (100 μg/mL) (all from Wisent Inc., St. Bruno, Quebec, Canada). Compounds are dissolved in DMSO at 30 mM. A series of 1:3 dilutions are first made in DMSO, and further 1:100 dilutions are made in serum-containing cell culture media. The final concentration of DMSO is 0.1% in cell culture media. After cells are treated with various concentrations of test compound for 4 hours, cells are lysed using Quantigene 2.0 sample processing kit (#QS0100). C-Myc mRNA is detected using a QuantiGene 2.0 assay kit (#QS0009) with gene-specific probe to human C-Myc (#SA-50182) following the manufacturer's recommendations. Luminescene signals are read on Flexstation II microplate reader (Molecular Devices, Sunnyvale, Calif., USA).

| SMILES | pIC50 (BRD4(BD1)) | pIC50 [1] |
| --- | --- | --- |
| Cc1cc(-c2cc3c(c(N(C)c4ccccc4)c2)NC(=O)CC3)cn(C)c1=O [Compound 14, 6-(1,5-dimethyl-6-oxo-3-pyridyl)-8-(N-methylanilino)-3,4-dihydro-1H-quinolin-2-one] | 6.46 | 6.72 |
| Cc1cc(-c2ccc3c(c2Cc2ccccc2)CCC(=O)N3)cn(C)c1=O [Compound 7, 5-benzyl-6-(1,5-dimethyl-6-oxo-3-pyridyl)-3,4-dihydro-1H-quinolin-2-one] | 6.85 | 7.05 |
| Cc1cc(-c2ccc3c(c2Cc2ccccc2)CCC(=O)N3C)cn(C)c1=O [Compound 9, 5-benzyl-6-(1,5-dimethyl-6-oxo-3-pyridyl)-1-methyl-3,4-dihydroquinolin-2-one] | 6.57 | 6.59 |
| Cc1cc(-c2cc3c(c(OCc4ccccc4)c2)NC(=O)CC3)cn(C)c1=O [Compound 17, 8-(benzyloxy)-6-(1,5-dimethyl-6-oxo-1,6-dihydropyridin-3-yl)-3,4-dihydroquinolin-2(1H)-one] | 6.74 | 6.62 |
| Cc1cc(-c2cc3c(c(Cc4ccccc4)c2)N(C)C(=O)CC3)cn(C)c1=O [Compound 2, 8-benzyl-6-(1,5-dimethyl-6-oxo-3-pyridyl)-1-methyl-3,4-dihydroquinolin-2-one] | 6.25 | 6.68 |
| Cc1cc(-c2cc3c(cc2Cc2ccccc2)N(C)C(=O)CC3)cn(C)c1=O [Compound 10, 7-benzyl-6-(1,5-dimethyl-6-oxo-3-pyridyl)-1-methyl-3,4-dihydroquinolin-2-one] | 6.32 | 6.60 |
| Cc1cc(-c2cc3c(cc2Cc2ccccc2)NC(=O)CC3)cn(C)c1=O [Compound 8, 7-benzyl-6-(1,5-dimethyl-6-oxo-3-pyridyl)-3,4-dihydro-1H-quinolin-2-one] | 6.55 | 6.62 |
| Cc1cc(-c2ccc3c(c2Cc2ccncc2)CCC(=O)N3)cn(C)c1=O [Compound 59, 6-(1,5-dimethyl-6-oxo-1,6-dihydropyridin-3-yl)-5-(pyridin-4-ylmethyl)-3,4-dihydroquinolin-2(1H)-one] |  | 6.57 |
| Cc1cc(-c2cc3c(cc2Cc2cccc(F)c2)NC(=O)CC3)cn(C)c1=O [Compound 85, 6-(1,5-dimethyl-6-oxo-1,6-dihydropyridin-3-yl)-7-(3-fluorobenzyl)-3,4-dihydroquinolin-2(1H)-one] |  | 6.46 |

Second part, the compound after the results:

| pIC50 (BRD4(BD1)) | pIC50 [1] | SMILES |
| --- | --- | --- |
| 6.09 | 6.12 | Cc1cc(-c2cc3c(c(NC4CCCCC4)c2)NC(=O)CC3)cn(C)c1=O [Compound 6, 8-(cyclohexylamino)-6-(1,5-dimethyl-6-oxo-3-pyridyl)-3,4-dihydro-1H-quinolin-2-one] |
| 6.15 | 6.05 | Cc1cc(-c2cc3c(c(CNC4CCCC4)c2)NC(=O)CC3)cn(C)c1=O [Compound 19, 8-[(cyclopentylamino)methyl]-6-(1,5-dimethyl-6-oxo-3-pyridyl)-3,4-dihydro-1H-quinolin-2-one] |
| 6.46 | 5.67 | Cc1cc(-c2cc3c(c(Nc4cccnc4)c2)NC(=O)CC3)cn(C)c1=O [Compound 11, 6-(1,5-dimethyl-6-oxo-3-pyridyl)-8-(3-pyridylamino)-3,4-dihydro-1H-quinolin-2-one] |
| 6.29 | 6.24 | Cc1cc(-c2cc3c(c(Nc4ccccc4)c2)NC(=O)CC3)cn(C)c1=O [Compound 3, 8-anilino-6-(1,5-dimethyl-6-oxo-3-pyridyl)-3,4-dihydro-1H-quinolin-2-one] |
| 6.96 | 7.05 | Cc1cc(-c2cc3c(c(NCc4ccccn4)c2)NC(=O)CC3)cn(C)c1=O [Compound 12, 6-(1,5-dimethyl-6-oxo-3-pyridyl)-8-(2-pyridylmethylamino)-3,4-dihydro-1H-quinolin-2-one] |
| 6.38 | 6.10 | Cc1cc(-c2cc3c(c(NC4CCOCC4)c2)NC(=O)CC3)cn(C)c1=O [Compound 18, 6-(1,5-dimethyl-6-oxo-3-pyridyl)-8-(tetrahydropyran-4-ylamino)-3,4-dihydro-1H-quinolin-2-one] |
| 6.39 | 6.80 | Cc1cc(-c2cc3c(c(Cc4ccccc4)c2)NC(=O)CC3)cn(C)c1=O [Compound 1, 8-benzyl-6-(1,5-dimethyl-6-oxo-3-pyridyl)-3,4-dihydro-1H-quinolin-2-one] |
| 6.55 | 7.05 | Cc1cc(-c2cc3c(c(NCc4ccccc4)c2)NC(=O)CC3)cn(C)c1=O [Compound 4, 8-(benzylamino)-6-(1,5-dimethyl-6-oxo-3-pyridyl)-3,4-dihydro-1H-quinolin-2-one] |
|  | 6.27 | Cc1cc(-c2cc3c(c(OCC4CCCCC4)c2)NC(=O)CC3)cn(C)c1=O [Compound 71] |
|  | 6.08 | Cc1cc(-c2cc3c(c(CNC4CCCCC4)c2)NC(=O)CC3)cn(C)c1=O [Compound 24, 8-[(cyclohexylamino)methyl]-6-(1,5-dimethyl-6-oxo-3-pyridyl)-3,4-dihydro-1H-quinolin-2-one] |
|  | 6.29 | Cc1cc(-c2cc3c(c(OCc4cocn4)c2)NC(=O)CC3)cn(C)c1=O [Compound 84, 6-(1,5-dimethyl-6-oxo-1,6-dihydropyridin-3-yl)-8-(oxazol-4-ylmethoxy)-3,4-dihydroquinolin-2(1H)-one] |
| 5.89 | 5.80 | Cc1cc(-c2cc3c(c(CN4CCCCC4)c2)NC(=O)CC3)cn(C)c1=O [Compound 13, 6-(1,5-dimethyl-6-oxo-3-pyridyl)-8-(1-piperidylmethyl)-3,4-dihydro-1H-quinolin-2-one] |
